pIC50, pKi: −log10 of the molar value.
Key:
IL-2 = experiment: Suppression of IL-2 production by anti-CD3/anti-CD28 stimulated CD4 positive T cells; assay type: cell-based; conditions: human CD4 positive T cells, anti-CD3 and anti-CD28 antibody, 24 hr, ELISA; geometric mean of three volunteers
Description: Using human peripheral blood, an anti-inflammatory effect of compounds F and J in vitro was studied. Blood was collected from 3 healthy volunteers, and CD4 positive T cells were prepared. Anti-CD3 antibody and anti-CD28 antibody were added, and 24 hr later the amounts of IL-2 and TNFα released in the medium were measured by ELISA. […] The amount of IP-10 released into the medium for 48 hr was measured with ELISA. In both cases, the test compound was added 30 min before stimulation.
Each value is a geometric mean of three volunteers.

human EP1 = molecular target: T1, human EP1 (Homo sapiens, UniProt P34995); experiment: Receptor affinity, tritium-labeled PGE2 binding to membranes of transfected COS-7 cells; conditions: COS-7 cell membranes
T1 construct: expressed in transfected cells; host or cells: COS-7 (membranes)
T1 sequence (P34995 1-402): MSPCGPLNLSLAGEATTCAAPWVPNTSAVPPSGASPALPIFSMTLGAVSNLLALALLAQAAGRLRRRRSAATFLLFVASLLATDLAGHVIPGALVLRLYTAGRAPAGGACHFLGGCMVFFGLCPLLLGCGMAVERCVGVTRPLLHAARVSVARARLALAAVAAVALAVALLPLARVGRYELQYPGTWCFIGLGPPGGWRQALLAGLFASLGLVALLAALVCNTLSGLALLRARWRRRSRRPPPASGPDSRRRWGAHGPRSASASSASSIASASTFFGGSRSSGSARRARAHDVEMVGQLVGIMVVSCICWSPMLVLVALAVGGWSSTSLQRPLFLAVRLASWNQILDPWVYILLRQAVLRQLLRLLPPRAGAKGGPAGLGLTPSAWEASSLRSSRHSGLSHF
Description: PG receptor affinity of compound F and compound J of the present invention was evaluated. Compound F used was one synthesized in Example 9, and compound J was prepared by separating and purifying the compound synthesized in Example 14 with a column (the same preparations were used in the following Examples). COS-7 cells were transfected with the genes of mouse EP4, human EP1-4 or human IP to overexpress the receptor and then the cell membranes were collected. As a labeled ligand, tritium-labeled PGE2 was used for EPs; tritium-labeled iloprost, for IP. The dissociation constant Kd value was obtained and inhibition constant Ki value of each test compound was determined in a conventional method. As a reference control, PGE2 was used for EPs; beraprost sodium (BPS), for IP.

pIC50 (IL-2): 10.21
pKi (human EP1): 8.54
Compound: CCCCC[C@H](O)/C=C/[C@H]1[C@H](O)CC(=O)[C@@H]1C/C=C\CCCC(=O)O [PGE2]
